{
  "source": "ChEMBL document CHEMBL2375331",
  "about": "“Daphnane-type diterpenes with inhibitory activities against human cancer cell lines from Daphne genkwa” (Bioorg Med Chem Lett, 2013)",
  "format_in_all_cases": "functional, cell-based",
  "key": {"[1]": {"assay": "Cytotoxicity against human A375-S2 cells after 48 hrs by MTT assay", "conditions": "A375-S2, 48 h"}, "HL-60": {"tested_on": "HL-60", "assay": "Cytotoxicity against human HL60 cells after 48 hrs by MTT assay", "conditions": "HL-60, 48 h"}, "U-937": {"tested_on": "U-937", "assay": "Cytotoxicity against human U937 cells after 48 hrs by MTT assay", "conditions": "U-937, 48 h"}, "HCT-116": {"tested_on": "HCT-116", "assay": "Cytotoxicity against human HCT116 cells after 48 hrs by MTT assay", "conditions": "HCT-116, 48 h"}, "HT-1080": {"tested_on": "HT-1080", "assay": "Cytotoxicity against human HT1080 cells after 48 hrs by MTT assay", "conditions": "HT-1080, 48 h"}, "K562": {"tested_on": "K562", "assay": "Cytotoxicity against human K562 cells after 48 hrs by MTT assay", "conditions": "K562, 48 h"}, "MCF7": {"tested_on": "MCF7", "assay": "Cytotoxicity against human MCF7 cells after 48 hrs by MTT assay", "conditions": "MCF7, 48 h"}, "HepG2": {"tested_on": "HepG2", "assay": "Cytotoxicity against human HepG2 cells after 48 hrs by MTT assay", "conditions": "HepG2, 48 h"}, "HeLa": {"tested_on": "HeLa", "assay": "Cytotoxicity against human HeLa cells after 48 hrs by MTT assay"}, "A549": {"tested_on": "A549", "assay": "Cytotoxicity against human A549 cells after 48 hrs by MTT assay", "conditions": "A549, 48 h"}},
  "data": [
    {"compound": "C=C(C)[C@]12C[C@@H](C)[C@@]34O[C@@]5(CCCCCCC[C@@H](C)[C@H]6[C@H](C)C(=O)[C@@](O)([C@H](O)[C@@]7(CO)O[C@H]7[C@H]3[C@H]1O5)[C@@H]64)O2", "note": "[WIKSTROELIDE E]", "values": [
      {"measurement": "IC50", "setting": "[1]", "result": 29, "unit": "µM"},
      {"measurement": "IC50", "setting": "HL-60", "result": 22.1, "unit": "µM"},
      {"measurement": "IC50", "setting": "U-937", "result": 19.5, "unit": "µM"},
      {"measurement": "IC50", "setting": "HCT-116", "result": 29.9, "unit": "µM"},
      {"measurement": "IC50", "setting": "HT-1080", "result": 15.1, "unit": "µM"},
      {"measurement": "IC50", "setting": "K562", "result": 24, "unit": "µM"},
      {"measurement": "IC50", "setting": "MCF7", "result": "> 50", "unit": "µM"},
      {"measurement": "IC50", "setting": "HepG2", "result": 11.4, "unit": "µM"},
      {"measurement": "IC50", "setting": "HeLa", "result": 17.1, "unit": "µM"},
      {"measurement": "IC50", "setting": "A549", "result": 19.3, "unit": "µM"}
    ]},
    {"compound": "C=C(C)[C@@]12O[C@@]3(/C=C/C=C/CCCCC)O[C@@H]1[C@@H]1[C@@H]4O[C@]4(CO)[C@@H](O)[C@]4(O)C(=O)C(C)=C[C@H]4[C@@]1(O3)[C@H](C)[C@H]2OC(C)=O", "note": "[YUANHUADINE]", "values": [
      {"measurement": "IC50", "setting": "[1]", "result": 15.8, "unit": "µM"},
      {"measurement": "IC50", "setting": "HL-60", "result": 30.1, "unit": "µM"},
      {"measurement": "IC50", "setting": "U-937", "result": 14.7, "unit": "µM"},
      {"measurement": "IC50", "setting": "HCT-116", "result": 32.6, "unit": "µM"},
      {"measurement": "IC50", "setting": "HT-1080", "result": "< 0.1", "unit": "µM"},
      {"measurement": "IC50", "setting": "K562", "result": 22.2, "unit": "µM"},
      {"measurement": "IC50", "setting": "MCF7", "result": 4.11, "unit": "µM"},
      {"measurement": "IC50", "setting": "HepG2", "result": 26.3, "unit": "µM"},
      {"measurement": "IC50", "setting": "HeLa", "result": 17.1, "unit": "µM"},
      {"measurement": "IC50", "setting": "A549", "result": "> 50", "unit": "µM"}
    ]},
    {"compound": "C=C(C)[C@@]12OC3(c4ccccc4)O[C@@H]1[C@@H]1[C@H](O)[C@](O)(CO)[C@@H](O)[C@]4(O)C(=O)C(C)=C[C@H]4[C@@]1(O3)[C@H](C)[C@H]2OC(=O)c1ccccc1", "note": "[YUANHUAOATE B]", "values": [
      {"measurement": "IC50", "setting": "[1]", "result": 23.3, "unit": "µM"},
      {"measurement": "IC50", "setting": "HL-60", "result": 27, "unit": "µM"},
      {"measurement": "IC50", "setting": "U-937", "result": 14.4, "unit": "µM"},
      {"measurement": "IC50", "setting": "HCT-116", "result": 26.5, "unit": "µM"},
      {"measurement": "IC50", "setting": "HT-1080", "result": 0.59, "unit": "µM"},
      {"measurement": "IC50", "setting": "K562", "result": 21.3, "unit": "µM"},
      {"measurement": "IC50", "setting": "MCF7", "result": 0.37, "unit": "µM"},
      {"measurement": "IC50", "setting": "HepG2", "result": 25.1, "unit": "µM"},
      {"measurement": "IC50", "setting": "HeLa", "result": 21, "unit": "µM"},
      {"measurement": "IC50", "setting": "A549", "result": 15.9, "unit": "µM"}
    ]},
    {"compound": "C=C(C)[C@@]1(O)[C@H](OC(=O)/C=C/C=C/CCCCC)[C@@H]2[C@@H]3O[C@]3(CO)[C@@H](O)[C@]3(O)C(=O)C(C)=C[C@H]3[C@@]2(O)[C@H](C)[C@H]1OC(=O)c1ccccc1", "note": "[YUANHUAOATE E]", "values": [
      {"measurement": "IC50", "setting": "[1]", "result": 26.5, "unit": "µM"},
      {"measurement": "IC50", "setting": "HL-60", "result": 18.5, "unit": "µM"},
      {"measurement": "IC50", "setting": "U-937", "result": 11.6, "unit": "µM"},
      {"measurement": "IC50", "setting": "HCT-116", "result": 16.4, "unit": "µM"},
      {"measurement": "IC50", "setting": "HT-1080", "result": 18.4, "unit": "µM"},
      {"measurement": "IC50", "setting": "K562", "result": 29, "unit": "µM"},
      {"measurement": "IC50", "setting": "MCF7", "result": "> 50", "unit": "µM"},
      {"measurement": "IC50", "setting": "HepG2", "result": 11.1, "unit": "µM"},
      {"measurement": "IC50", "setting": "HeLa", "result": 16.7, "unit": "µM"},
      {"measurement": "IC50", "setting": "A549", "result": 13.3, "unit": "µM"}
    ]}
  ]
}
